In US9394303B2, “Small molecule inhibitors of MCL-1 and uses thereof” (priority 2014, dated 2016):
“Also recorded” adds a separate entry of the source. Like-named read-outs stand apart in the source and are kept apart here.

How the values were obtained:
[1] = system: Eμ-myc lymphoma cells overexpressing Bcl-2; experiment: Eμ-myc lymphoma cell killing; type: cell-based, mice; details: FIG. 9
Text: (§1) The specificity and selectivity of this class Mcl-1 inhibitors was further confirmed by using cell lines developed by retroviral transduction of lymphoma cells isolated from Eμ-myc transgenic mice which survival depends on the expression of individual prosurvival protein (see, e.g., Whitecross K F, Alsop A E, Cluse L A, Wiegmans A, Banks K M, et al. 2009. […].

[2] = system: Eμ-myc lymphoma cells overexpressing Bcl-xL; experiment: Eμ-myc lymphoma cell killing; type: cell-based, mice; details: FIG. 9
Text: as §1

Mcl-1 [3] = molecular target: T1, Mcl-1 (Homo sapiens (Human), UniProt Q07820); details: cited from earlier work
Mcl-1 [4] = molecular target: T1, Mcl-1; details: for did not bind to Mcl-1 up to: highest concentration tested
Bcl-2 = Bcl-2 (Homo sapiens, UniProt P10415); experiment: Fluorescence polarization-based competitive binding assay (FAM-BID tracer)
Bcl-xL = Bcl-xL (Homo sapiens (Human), UniProt Q07817, DEL45-85); experiment: as above; details: for Ki: Table 2, tested up to 20 μM, read-out: Bcl-XL Ki ± SD
[5] = system: Eμ-myc lymphomas overexpressing Mcl-1; experiment: Eμ-myc lymphoma cell killing; type: cell-based, mice; details: FIG. 9
Text: as §1

[6] = read-out: Bcl-2 Ki ± SD; Table 2; tested up to 20 μM
[7] = Table 2; tested up to 20 μM; read-out: Bcl-2 Ki ± SD

Bcl-xL, sequence (Q07817 with tags, fused parts or gaps DEL45-85): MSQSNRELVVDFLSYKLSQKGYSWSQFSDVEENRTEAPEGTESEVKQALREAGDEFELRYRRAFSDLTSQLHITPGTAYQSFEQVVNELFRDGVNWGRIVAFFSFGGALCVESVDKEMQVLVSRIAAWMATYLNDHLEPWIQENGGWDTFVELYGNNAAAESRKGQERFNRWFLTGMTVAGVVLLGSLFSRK
Bcl-2, sequence (P10415 whole entry, looked up): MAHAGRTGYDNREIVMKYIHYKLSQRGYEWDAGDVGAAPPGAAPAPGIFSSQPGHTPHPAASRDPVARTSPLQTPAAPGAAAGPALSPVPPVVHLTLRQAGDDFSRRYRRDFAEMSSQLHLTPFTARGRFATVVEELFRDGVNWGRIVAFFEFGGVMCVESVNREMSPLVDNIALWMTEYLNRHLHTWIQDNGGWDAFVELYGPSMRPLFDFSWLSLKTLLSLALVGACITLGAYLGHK

Structure (SMILES): CC1(C)CCC(c2ccc(Cl)cc2)=C(CN2CCN(c3ccc(C(=O)NS(=O)(=O)c4ccc(N[C@H](CCN5CCOCC5)CSc5ccccc5)c(S(=O)(=O)C(F)(F)F)c4)cc3)CC2)C1 [ABT-263, reference compound]
- effect on Eμ-myc lymphoma cells dependent on Bcl-2 [1]: kills
- effect on Eμ-myc lymphoma cells dependent on Bcl-xL [2]: kills

Structure (SMILES): CN(C)CC[C@H](CSc1ccccc1)Nc1ccc(S(=O)(=O)NC(=O)c2ccc(N3CCN(Cc4ccccc4-c4ccc(Cl)cc4)CC3)cc2)cc1[N+](=O)[O-] [ABT-737]
- binding to Mcl-1 (Mcl-1 [3]): fails to bind

Structure (SMILES): Cc1nn(C)c2nc(-c3ccco3)cc(C(=O)O)c12 [Compound 3, 6-(Furan-2-yl)-1,3-dimethyl-1H-pyrazolo[3,4-b]pyridine-4-carboxylic acid]
- did not bind to Mcl-1 up to (Mcl-1 [4]): > 200 µM

Structure (SMILES): Cc1cc(C(=O)O)c2c(C)nn(C)c2n1 [Compound 5, 1,3,6-Trimethyl-1H-pyrazolo[3,4-b]pyridine-4-carboxylic acid]
- did not bind to Mcl-1 up to (Mcl-1 [4]): > 200 µM

Structure (SMILES): Cc1nn(Cc2ccccc2)c2nc(-c3ccco3)cc(C(=O)O)c12 [Compound 6, 1-Benzyl-6-(furan-2-yl)-3-methyl-1H-pyrazolo[3,4-b]pyridine-4-carboxylic acid]
- change in potency compared to 2 (Mcl-1 [4]; vs compound 2): slight increase in potency

Structure (SMILES): Cc1nn(Cc2ccc(Oc3ccccc3)cc2)c2nc(-c3ccco3)cc(C(=O)O)c12 [Compound 8, 6-(Furan-2-yl)-3-methyl-1-(4-phenoxybenzyl)-1H-pyrazolo[3,4-b]pyridine-4-carboxylic acid]
- Ki (Bcl-2; [6]): > 4 µM

Structure (SMILES): Cc1nn(Cc2ccc(Oc3ccccc3)cc2)c2nc(/C=C/c3ccccc3)cc(C(=O)O)c12 [Compound 16, (E)-3-methyl-1-(4-phenoxybenzyl)-6-styryl-1H-pyrazolo[3,4-b]pyridine-4-carboxylic acid]
- Ki (Bcl-2; [6]): 3.16 ± 1.03 µM
- Ki (Bcl-xL): 3.55 ± 0.3 µM

Structure (SMILES): Cc1cc(Oc2ccc(Cn3nc(C)c4c(C(=O)O)cc(-c5ccco5)nc43)cc2)cc(C)c1Cl [Compound 57]
- Ki (Bcl-2; [7]): 1.95 ± 0.2 µM
- Ki (Bcl-xL): > 5 µM
- no binding to Bcl-xL up to (Bcl-xL; highest concentration tested): > 20 µM
- effect on Eμ-myc lymphoma cells dependent on Bcl-2 [1]: did not show effect; also recorded: not affected
- effect on Eμ-myc lymphoma cells dependent on Bcl-xL [2]: did not show effect; also recorded: not affected
- effect on Eμ-myc lymphoma cells dependent on Mcl-1 [5]: led to sensitization; also recorded: selective killing

Structure (SMILES): Cc1nn(Cc2ccc(Oc3cccc4ccccc34)cc2)c2nc(-c3ccco3)cc(C(=O)O)c12 [Compound 58]
- Ki (Bcl-2; [7]): > 4 µM
- Ki (Bcl-xL): > 5 µM
